Measurements reported in patent US6720346B2, “Thiazole benzamide derivatives and pharmaceutical compositions for inhibiting cell proliferation” (Agouron Pharmaceuticals, Inc., priority 2001, dated 2004).

How the values were obtained:
CDK2/cyclin A = biological target: T1, CDK2/cyclin A (Homo sapiens, UniProt P24941); experiment: Inhibition of CDK2/cyclin A retinoblastoma kinase activity (Ki; % inhibition); assay type: biochemical
T1 construct: made in house; host or cells: CDK2: insect cells (baculovirus); cyclin A: E. coli
How it was run: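 Radiometric filter assay of CDK2/proteolyzed cyclin A (baculovirus-expressed human CDK2, 10 or 19 nM) phosphorylating an Rb fragment with 25 μM [³²P/³³P]ATP in pH 7.4 HEPES, 2% DMSO, at 30 °C for 60 or 75 min under initial-rate conditions. Library compounds screened at 30 nM for % inhibition; apparent Ki from concentration series fit to competitive or tight-binding inhibition equations.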

human CDK4/cyclin D3 = biological target: T2, human CDK4/cyclin D3 (Homo sapiens, UniProt P11802); experiment: Inhibition of CDK4/cyclin D retinoblastoma kinase activity (Ki; % inhibition); assay type: biochemical
T2 construct: made in house; host or cells: insect cells co-infected with baculovirus vectors
How it was run: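 Insect-cell-expressed CDK4 with truncated cyclin D3 (1-264), 5 nM, phosphorylating His-tagged Rb fragment (386-928) with 25 μM [32/33P]ATP at pH 7.4, 30 °C, 20 min (60 min for tight binders). Filter capture, phosphorimager read; % inhibition at 30 nM compound, Ki from competitive or tight-binding fits.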

HCT-116 cell line = experiment: Inhibition of cell growth, MTT tetrazolium salt assay; assay type: cell-based
How it was run: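 Growth inhibition was read as MTT-formazan absorbance at 540 nm, after 4 h with 0.2 mg/mL MTT. Before that, HCT-116 cells had been exposed 3–5 days at 37 °C to compounds in 0.5% (v/v) DMSO, added 4 h after plating. 50% and 90% inhibitory concentrations were taken from semi-log concentration–inhibition plots versus vehicle controls.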

[1] = HCT-116 cells, 0.25 μM compound

T2 sequence (P11802 whole entry): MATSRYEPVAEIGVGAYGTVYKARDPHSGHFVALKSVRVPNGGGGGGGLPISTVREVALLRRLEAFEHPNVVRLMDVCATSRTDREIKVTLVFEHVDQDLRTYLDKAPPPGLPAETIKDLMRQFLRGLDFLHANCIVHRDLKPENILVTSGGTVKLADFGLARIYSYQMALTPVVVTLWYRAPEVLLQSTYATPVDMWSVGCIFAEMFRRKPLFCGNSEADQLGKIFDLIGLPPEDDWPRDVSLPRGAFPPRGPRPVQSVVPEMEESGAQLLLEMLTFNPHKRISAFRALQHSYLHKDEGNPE
T2 sequence (P30281 1-264 partner limits assumed): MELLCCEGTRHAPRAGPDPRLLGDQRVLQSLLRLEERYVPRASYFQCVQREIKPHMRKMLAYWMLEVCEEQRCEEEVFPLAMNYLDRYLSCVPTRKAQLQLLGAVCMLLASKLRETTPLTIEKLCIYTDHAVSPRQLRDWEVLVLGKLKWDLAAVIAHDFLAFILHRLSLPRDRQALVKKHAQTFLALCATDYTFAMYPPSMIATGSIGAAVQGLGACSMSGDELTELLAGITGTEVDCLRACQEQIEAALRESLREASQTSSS

SMILES	CDK2 % Inhibition at 0.03 μM (CDK2/cyclin A; at 0.03 μM) [%]	CDK4 % Inhibition at 0.03 μM (human CDK4/cyclin D3; at 0.03 μM) [%]	HCT-116 % Inhibition at 0.1 μM (HCT-116 cell line; HCT-116, at 0.1 μM) [%]	HCT-116 % Inhibition at 0.25 μM (HCT-116 cell line; HCT-116, at 0.25 μM) [%]	HCT-116 % Inhibition at 0.1 μM (HCT-116 cell line; HCT-116, at 0.1 μM, 0.1 µM) [%]	HCT-116 % Inhibition at 0.25 μM (HCT-116 cell line; HCT-116, at 0.25 μM, 0.25 µM) [%]	CDK2 % Inhibition at 0.03 μM (CDK2/cyclin A; 0.03 μM compound) [%]	CDK4 % Inhibition at 0.03 μM (human CDK4/cyclin D3; 0.03 μM compound) [%]	HCT-116 % Inhibition at 0.1 μM (HCT-116 cell line; HCT-116 cells, 0.1 μM compound) [%]	HCT-116 % Inhibition at 0.25 μM (HCT-116 cell line; [1]) [%]
CCCOCCNC(=O)c1ccc(Nc2nc(N)c(C(=O)c3c(F)cccc3F)s2)cc1 [Example G165]	1	22	0	61						
C[C@@H](NC(=O)c1ccc(Nc2nc(N)c(C(=O)c3c(F)cccc3F)s2)cc1)c1ccccc1 [Example G166]	22	4	8	90						
C[C@H](NC(=O)c1ccc(Nc2nc(N)c(C(=O)c3c(F)cccc3F)s2)cc1)c1ccccc1 [Example G167]	19	29	26	53						
CC(C)OCCNC(=O)c1ccc(Nc2nc(N)c(C(=O)c3c(F)cccc3F)s2)cc1 [Example G168]	4	17	25	52						
COc1ccc(CNC(=O)c2ccc(Nc3nc(N)c(C(=O)c4c(F)cccc4F)s3)cc2)cc1 [Example G169]	38	49	32	71						
COc1ccccc1CNC(=O)c1ccc(Nc2nc(N)c(C(=O)c3c(F)cccc3F)s2)cc1 [Example G170]	26	32	44	78						
C#CCCN(CCCC)C(=O)c1ccc(Nc2nc(N)c(C(=O)c3c(F)cccc3F)s2)cc1 [Example G171]	4	16	30	47						
Nc1nc(Nc2ccc(C(=O)NCc3ccc4c(c3)OCO4)cc2)sc1C(=O)c1c(F)cccc1F [Example G172]	36	54	37	61						
Nc1nc(Nc2ccc(C(=O)NCC3CCCCC3)cc2)sc1C(=O)c1c(F)cccc1F [Example G173]	14	21	18	54						
CN(CC(O)CO)C(=O)c1ccc(Nc2nc(N)c(C(=O)c3c(F)cccc3F)s2)cc1 (centres unmarked) [Example G174]	0	15	28	56						
CC(CO)NC(=O)c1ccc(Nc2nc(N)c(C(=O)c3c(F)cccc3F)s2)cc1 (centres unmarked) [Example G175]	15	31			11	47				
Nc1nc(Nc2ccc(C(=O)N[C@@H]3CCc4ccccc43)cc2)sc1C(=O)c1c(F)cccc1F [Example G176]	22	21	32	62						
Nc1nc(Nc2ccc(C(=O)NCCc3ccccc3Cl)cc2)sc1C(=O)c1c(F)cccc1F [Example G177]	10	23	24	45						
Nc1nc(Nc2ccc(C(=O)NC3CCN(Cc4ccccc4)CC3)cc2)sc1C(=O)c1c(F)cccc1F [Example G178]	20	54	43	83						
N#CCCN(CC1CCCO1)C(=O)c1ccc(Nc2nc(N)c(C(=O)c3c(F)cccc3F)s2)cc1 (centres unmarked) [Example G179]	−5	10	21	42						
Nc1nc(Nc2ccc(C(=O)NCc3ccccn3)cc2)sc1C(=O)c1c(F)cccc1F [Example G180]	22	29	25	68						
Nc1nc(Nc2ccc(C(=O)NCc3ccccc3)cc2)sc1C(=O)c1c(F)cccc1F [Example G181]	30	36	28	75						
C=C(C)CN(C)C(=O)c1ccc(Nc2nc(N)c(C(=O)c3c(F)cccc3F)s2)cc1 [Example G182]	−2	6	23	52						

SMILES	CDK2 % Inhibition at 0.03 μM (CDK2/cyclin A; at 0.03 μM) [%]	CDK4 % Inhibition at 0.03 μM (human CDK4/cyclin D3; at 0.03 μM) [%]	HCT-116 % Inhibition at 0.1 μM (HCT-116 cell line; HCT-116, at 0.1 μM) [%]	HCT-116 % Inhibition at 0.25 μM (HCT-116 cell line; HCT-116, at 0.25 μM) [%]	HCT-116 % Inhibition at 0.1 μM (HCT-116 cell line; HCT-116, at 0.1 μM, 0.1 µM) [%]	HCT-116 % Inhibition at 0.25 μM (HCT-116 cell line; HCT-116, at 0.25 μM, 0.25 µM) [%]	CDK2 % Inhibition at 0.03 μM (CDK2/cyclin A; 0.03 μM compound) [%]	CDK4 % Inhibition at 0.03 μM (human CDK4/cyclin D3; 0.03 μM compound) [%]	HCT-116 % Inhibition at 0.1 μM (HCT-116 cell line; HCT-116 cells, 0.1 μM compound) [%]	HCT-116 % Inhibition at 0.25 μM (HCT-116 cell line; [1]) [%]
CCC(CO)NC(=O)c1ccc(Nc2nc(N)c(C(=O)c3c(F)cccc3F)s2)cc1 (centres unmarked) [Example G183]	23	38			11	48				
Nc1nc(Nc2ccc(C(=O)N[C@H]3CCc4ccccc43)cc2)sc1C(=O)c1c(F)cccc1F [Example G184]	34	36	17	58						
COc1ccccc1CCNC(=O)c1ccc(Nc2nc(N)c(C(=O)c3c(F)cccc3F)s2)cc1 [Example G185]	7	20	10	49						
CCCCNC(=O)c1ccc(Nc2nc(N)c(C(=O)c3c(F)cccc3F)s2)cc1 [Example G186]	7	30	14	51						
CN(C(=O)c1ccc(Nc2nc(N)c(C(=O)c3c(F)cccc3F)s2)cc1)C1CCCCC1 [Example G187]	−2	12	16	48						
Nc1nc(Nc2ccc(C(=O)NCc3cccnc3)cc2)sc1C(=O)c1c(F)cccc1F [Example G188]	29	39	17	51						
CC(=O)c1cccc(NC(=O)c2ccc(Nc3nc(N)c(C(=O)c4c(F)cccc4F)s3)cc2)c1 [Example G189]	10	18	13	56						
CCOC(=O)c1ccc(NC(=O)c2ccc(Nc3nc(N)c(C(=O)c4c(F)cccc4F)s3)cc2)cc1 [Example G190]	5	4	9	55						
C[C@H](NC(=O)c1ccc(Nc2nc(N)c(C(=O)c3c(F)cccc3F)s2)cc1)C(N)=O [Example G191]	14	15	3	51						
CNC(=O)C(C)NC(=O)c1ccc(Nc2nc(N)c(C(=O)c3c(F)cccc3F)s2)cc1 (centres unmarked) [Example G192]	8	23	13	49						
COc1cccc(CCNC(=O)c2ccc(Nc3nc(N)c(C(=O)c4c(F)cccc4F)s3)cc2)c1 [Example G193]	19	26	17	56						
Nc1nc(Nc2ccc(C(=O)N3CCC(Cc4ccccc4)CC3)cc2)sc1C(=O)c1c(F)cccc1F [Example G194]	1	19	20	49						
CN(CC#N)C(=O)c1ccc(Nc2nc(N)c(C(=O)c3c(F)cccc3F)s2)cc1 [Example G195]	20	26	17	47						
Nc1nc(Nc2ccc(C(=O)NCCc3ccc(Cl)cc3Cl)cc2)sc1C(=O)c1c(F)cccc1F [Example G196]	7	13	13	48						
Cc1ccc(NC(=O)c2ccc(Nc3nc(N)c(C(=O)c4c(F)cccc4F)s3)cc2)cc1 [Example G197]							14	9	26	61
NC(=O)C(CO)NC(=O)c1ccc(Nc2nc(N)c(C(=O)c3c(F)cccc3F)s2)cc1 (centres unmarked) [Example G198]							19	42	9	44
Nc1nc(Nc2ccc(C(=O)NC3CCOC3=O)cc2)sc1C(=O)c1c(F)cccc1F (centres unmarked) [Example G199]							18	22	12	52
